Experimental data from US20200163938A1, “PHARMACEUTICAL COMPOSITION COMPRISING IRON CHELATOR EXHIBITING ANTITUMOR ACTIVITY, ANTIBACTERIAL ACTIVITY AND/OR ANTIVIRUS ACTIVITY, AND HAVING REDUCED SIDE EFFECTS” (priority 2017, published 2020).
In brackets after ≈: the same amount, converted by molar mass. Several values for one entry are separate records, joined by “and”; a condition that tells them apart may be missing. Identical values can stand only once. Like-named read-outs stand apart in the source and are kept apart here.

Tests used:
[1] = tested on: C. albicans (ATCC10231; Candida albicans); test: Minimum growth inhibition concentration (MIC); format: cell-based
Experimental: (§1) The dilution series of the chelating agent of each test group was prepared according to a standard method, microbes were inoculated, and then 24 hours later, the microbial growth was confirmed, thereby determining the minimum growth inhibition concentration of the chelating agent of each test group. Microbes used herein were S. aureus (ATCC6538; Staphylococcus aureus), P. aeruginosa (ATCC9027; Pseudomonas aeruginosa) and C. albicans (ATCC10231; Candida albicans). Drugs used herein were oxacillin, vancomycin and deferasirox as positive controls.

[2] = tested on: P. aeruginosa (ATCC9027; Pseudomonas aeruginosa); test: Minimum growth inhibition concentration (MIC); format: cell-based; conditions: 24 hours; for MIC: Pseudomonas aeruginosa, ATCC9027
Experimental: as §1

[3] = tested on: S. aureus (ATCC6538; Staphylococcus aureus); test: Minimum growth inhibition concentration (MIC); format: cell-based; conditions: for MIC: Staphylococcus aureus, ATCC6538; for MIC / MIC S. aureus: 24 hours
Experimental: as §1

[4] = tested on: S. mutans (ATCC25175); test: Antibacterial activity, turbidity and ATP assay; format: cell-based, Streptococcus mutans; conditions: aerobic culture 37° C., 18 hours; FIGS. 6A, 6B
Experimental: First, the antibacterial activity of a dental caries-causing bacterium, S. mutans (ATCC25175) was examined. With the use of a liquid medium prepared by adding a yeast extract and the chelating agent of each test group to TSB medium, aerobic culture was performed at 37° C. for 18 hours, and then turbidity was found from optical density (OD570 or 595 nm). Cell activity was measured using an ATP assay kit (Kikkoman Corporation). Results were as depicted in FIGS. 6A and 6B.

[5] = tested on: A. actinomycetemcomitans AaY4 (ATCC); test: Antibacterial activity, turbidity and ATP assay; format: cell-based, Aggregatibacter actinomycetemcomitans; conditions: anaerobic culture 37° C., 18 hours; FIGS. 7A, 7B
Experimental: A bacterial strain of one of periodontopathic bacteria, A. actinomycetemcomitans, used herein was AaY4 (ATCC). With the use of a liquid medium prepared by adding a yeast extract, sodium bicarbonate and the chelating agent of each test group to TSB medium, anaerobic culture (Anaeropack-anaerobic) was performed at 37° C. for 18 hours. Turbidity was measured using absorbance (OD570 or 595 nm), and cell activity was measured using an ATP assay kit. Results were as depicted in FIGS. 7A and 7B.

[6] = tested on: Human lung cancer cell line (A549) subcutaneous tumors; test: In vivo antitumor effects, A549 subcutaneous tumors in nude mice
Experimental: Antitumor effects were confirmed using animal models. Specifically, nude mice (BALB/c nu/nu, 6 weeks old: Clea Japan Inc.) were provided. Human lung cancer cell line (A549) was adjusted at 3×10^6/mouse, and then mixed with Matrigel (BD Biosciences) at 1:1. The thus obtained mixture was administered to mice, thereby forming subcutaneous tumors. At 1 week after the formation of subcutaneous tumors, mice were divided into a negative control group (saline: 4 mice), a test group 9 administration group (test group 9: 3 mice), and a positive control group (deferasirox: 3 mice), and then subjected to oral administration. The dosage of deferasirox was 20 mg/kg/day (5 times/week administration) corresponding to that specified for humans in the package insert. Test group 9 was administered in the same dosage as that of deferasirox. Results were as depicted in FIGS. 4A and 4B.

[7] = format: in vivo; design: NEFA: unit not given here; conditions: for Body weight: rats
Experimental: To a negative control group (saline administration; n=6), the same amount of saline was administered. On day 14 after administration, determining life or death, measurement of body weight, physical items (respiration, body temperature, behavior, etc.) were observed. Moreover, blood samples were taken from each group, and the right kidneys and the livers were removed. Results were as depicted in FIG. 5A to 5C and Tables 4 to 9.

[8] = rat blood, oral 200 mg/kg, day 14
[9] = rat blood, oral 1000 mg/kg, day 14
[10] = rat blood, oral 1000 mg/kg, day 14, 1000 mg/kg

SMILES: O=C(O)c1ccc(-n2nc(-c3ccccc3O)nc2-c2ccccc2O)cc1 [Deferasirox, deferasirox, reference compound]
- MIC ([1]; Candida albicans, ATCC10231, 24 hours): > 250 µg/mL
- MIC [2]: > 250 µg/mL
- MIC [3]: 250 µg/mL (≈ 670 µM)

SMILES: Cc1onc(-c2ccccc2)c1C(=O)N[C@@H]1C(=O)N2[C@@H]1SC(C)(C)[C@@H]2C(=O)O [Oxacillin, oxacillin, reference compound]
- MIC [2]: 1020 µg/mL (≈ 2550 µM)
- MIC [3]: 0.25 µg/mL (≈ 0.623 µM)

SMILES: Cl.OCC1OC(O)C(NCc2ccc(O)c(O)c2)C(O)C1O (centres unmarked) [Test group 5]
- antimicrobial effects on S. mutans (turbidity, ATP activity) [4]: strong antimicrobial effects
- MIC C. albicans ([1]; 24 hours): 800 µg/mL
- antimicrobial effects on C. albicans (in words) ([1]; from Table 10): exhibited antimicrobial effects
- MIC P. aeruginosa [2]: >800 µg/mL
- MIC S. aureus [3]: 800 µg/mL
- antimicrobial effects on A. actinomycetemcomitans (turbidity, ATP activity) [5]: strong antimicrobial effects

SMILES: Cl.O=C(O)c1cc(CNC2C(O)OC(CO)C(O)C2O)ccc1O (centres unmarked) [Test group 7]
- MIC C. albicans ([1]; 24 hours): >800 µg/mL
- MIC P. aeruginosa [2]: >800 µg/mL
- MIC S. aureus [3]: >800 µg/mL

SMILES: Cl.O=C(O)[C@H](Cc1c[nH]cn1)NCc1ccc(O)c(O)c1 [Test group 8]
- MIC C. albicans ([1]; 24 hours): >800 µg/mL
- MIC P. aeruginosa [2]: >800 µg/mL
- MIC S. aureus [3]: 800 µg/mL
- antimicrobial effects on S. aureus (in words) ([3]; from Table 10): antimicrobial effects

SMILES: Cl.O=C(O)c1cc(CN[C@@H](Cc2c[nH]cn2)C(=O)O)ccc1O [Test group 9]
- MIC C. albicans ([1]; 24 hours): >500 µg/mL
- MIC P. aeruginosa [2]: >500 µg/mL
- MIC S. aureus [3]: >500 µg/mL
- in vivo antitumor effects ([6]; A549 subcutaneous tumors, nude mice, oral 20 mg/kg/day (5 times/week), FIG. 4A): antitumor effects were exhibited to an extent almost equivalent to that in the positive control group
- body weight change ([6]; mouse, in vivo, po, 20 mg/kg/day): no significant change was observed in body weight
- death during the experiment ([6]; nude mice, oral 20 mg/kg/day (5 times/week)): no mice died during the experiment
- ALP [7, 8]: 695 IU/L
- ALT [7, 8]: 24 IU/L
- AST [7, 8]: 54 IU/L
- BUN [7, 8]: 22.8 mg/dL
- CRE [7, 8]: 0.37 mg/dL
- Ca [7, 8]: 11.1 mg/dL
- GLU [7, 8]: 214 mg/dL
- K [7, 8]: 4.7 mEQ/L
- LD [7, 8]: 49 IU/L
- NEFA [7, 8]: 59
- Na [7, 8]: 146 mEQ/L
- T-Bil [7, 8]: 0.05 mg/dL
- TP [7, 8]: 5.5 g/dL
- CRE [7, 9]: 0.36 mg/dL
- T-Bil [7, 9]: 0.06 mg/dL
- ALP [7, 10]: 563 IU/L and 502 IU/L
- ALT [7, 10]: 24 IU/L and 25 IU/L
- AST [7, 10]: 59 IU/L and 58 IU/L
- BUN [7, 10]: 22.5 mg/dL and 24.4 mg/dL
- Ca [7, 10]: 10.0 mg/dL and 11.2 mg/dL
- GLU [7, 10]: 195 mg/dL and 301 mg/dL
- K [7, 10]: 3.6 mEQ/L and 4.8 mEQ/L
- LD [7, 10]: 78 IU/L and 70 IU/L
- Na [7, 10]: 143 mEQ/L and 144 mEQ/L
- TP [7, 10]: 5.4 g/dL and 5.9 g/dL
- Body weight ([7]; oral 200 mg/kg): 190.97 g
- Body weight ([7]; oral 1000 mg/kg, 1000 mg/kg): 177.11 g and 183.15 g

SMILES: CN[C@H](CC(C)C)C(=O)N[C@H]1C(=O)N[C@@H](CC(N)=O)C(=O)N[C@H]2C(=O)N[C@H]3C(=O)N[C@H](C(=O)N[C@H](C(=O)O)c4cc(O)cc(O)c4-c4cc3ccc4O)[C@H](O)c3ccc(c(Cl)c3)Oc3cc2cc(c3O[C@@H]2O[C@H](CO)[C@@H](O)[C@H](O)[C@H]2O[C@H]2C[C@](C)(N)[C@H](O)[C@H](C)O2)Oc2ccc(cc2Cl)[C@H]1O [Vancomycin, vancomycin, reference compound]
- MIC [2]: > 50 µg/mL
- MIC [3]: 1.6 µg/mL (≈ 1.1 µM)
